From patent US20110200992A1, “Biological Compositions, Articles and Methods for Monitoring Sterilization Processes” (priority 2008, published 2011)

System: spores
Assay: Fluorescence over a range of dye concentrations with decreasing concentrations of spores (Example 5)
Format: cell-based, Gb. stearothermophilus
Details: for Fluorescence intensity (normalized): ex 485/em 530 nm, 50° C.
Description: Dilutions were prepared using Sterile Water For Irrigation (Baxter, Deerfield, Ill.) and tested at a final population ranging between of 1×10^6 and 0 spores. The spore dilutions (100 microlitres) were combined with 200 microlitres of medium, consisting of Acridine Orange and nutrients as described in Example 1, with Acridine Orange concentrations at 1:5000 (0.0066 mM), 1:1000 (0.033 mM) and 1:500 (0.066 mM), each of the resulting mixtures was added to a well of a plate. The plate was subsequently placed in a preheated plate reader (BioTek Synergy 4 plate reader, Winooski, Vt.) at 50° C. and incubated for 60 min, during which fluorescence intensity readings were taken using excitation at 485 nm and emission at 530 nm. A summary of the normalized data is listed below in Table 5a-5c.

## CN(C)c1ccc2cc3ccc(N(C)C)cc3nc2c1 [Acridine Orange]
0.0066, 0.033, 0.066 mM
  Dependence of signal on dye concentration: the higher the signal
All Acridine Orange concentrations (0.0066, 0.033, 0.066 mM)
  Detection of spores (lowest spore population shown): Detection of E3 spores was shown
Dye 0.0066 mM with nutrients, 0 spores, 0:00:00
  Fluorescence intensity (normalized): 0
Dye 0.0066 mM with nutrients, 0 spores, 0:15:00
  Fluorescence intensity (normalized): 711
Dye 0.0066 mM with nutrients, 0 spores, 0:30:00
  Fluorescence intensity (normalized): 886.5
Dye 0.0066 mM with nutrients, 0 spores, 0:45:00
  Fluorescence intensity (normalized): 1027
Dye 0.0066 mM with nutrients, 0 spores, 1:00:00
  Fluorescence intensity (normalized): 1147.5
Dye 0.0066 mM with nutrients, E3 spores, 0:00:00
  Fluorescence intensity (normalized): 0
Dye 0.0066 mM with nutrients, E3 spores, 0:15:00
  Fluorescence intensity (normalized): 2033
Dye 0.0066 mM with nutrients, E3 spores, 0:30:00
  Fluorescence intensity (normalized): 2271.5
Dye 0.0066 mM with nutrients, E3 spores, 0:45:00
  Fluorescence intensity (normalized): 2396
Dye 0.0066 mM with nutrients, E3 spores, 1:00:00
  Fluorescence intensity (normalized): 2484.5
Dye 0.0066 mM with nutrients, E4 spores, 0:00:00
  Fluorescence intensity (normalized): 0
Dye 0.0066 mM with nutrients, E4 spores, 0:15:00
  Fluorescence intensity (normalized): 3754.5
Dye 0.0066 mM with nutrients, E4 spores, 0:30:00
  Fluorescence intensity (normalized): 4088
Dye 0.0066 mM with nutrients, E4 spores, 0:45:00
  Fluorescence intensity (normalized): 4174
Dye 0.0066 mM with nutrients, E4 spores, 1:00:00
  Fluorescence intensity (normalized): 4268
Dye 0.0066 mM with nutrients, E5 spores, 0:00:00
  Fluorescence intensity (normalized): 0
Dye 0.0066 mM with nutrients, E5 spores, 0:15:00
  Fluorescence intensity (normalized): 5224
Dye 0.0066 mM with nutrients, E5 spores, 0:30:00
  Fluorescence intensity (normalized): 5364
Dye 0.0066 mM with nutrients, E5 spores, 0:45:00
  Fluorescence intensity (normalized): 5373
Dye 0.0066 mM with nutrients, E5 spores, 1:00:00
  Fluorescence intensity (normalized): 5406
Dye 0.0066 mM with nutrients, E6 spores, 0:00:00
  Fluorescence intensity (normalized): 0
Dye 0.0066 mM with nutrients, E6 spores, 0:15:00
  Fluorescence intensity (normalized): 12024.5
Dye 0.0066 mM with nutrients, E6 spores, 0:30:00
  Fluorescence intensity (normalized): 15320
Dye 0.0066 mM with nutrients, E6 spores, 0:45:00
  Fluorescence intensity (normalized): 16514.5
Dye 0.0066 mM with nutrients, E6 spores, 1:00:00
  Fluorescence intensity (normalized): 17130.5
Dye 0.033 mM with nutrients, 0 spores, 0:00:00
  Fluorescence intensity (normalized): 0
Dye 0.033 mM with nutrients, 0 spores, 0:15:00
  Fluorescence intensity (normalized): 740
Dye 0.033 mM with nutrients, 0 spores, 0:30:00
  Fluorescence intensity (normalized): 958
Dye 0.033 mM with nutrients, 0 spores, 0:45:00
  Fluorescence intensity (normalized): 1143.5
Dye 0.033 mM with nutrients, 0 spores, 1:00:00
  Fluorescence intensity (normalized): 1280
Dye 0.033 mM with nutrients, E3 spores, 0:00:00
  Fluorescence intensity (normalized): 0
Dye 0.033 mM with nutrients, E3 spores, 0:15:00
  Fluorescence intensity (normalized): 2022.5
Dye 0.033 mM with nutrients, E3 spores, 0:30:00
  Fluorescence intensity (normalized): 2281
Dye 0.033 mM with nutrients, E3 spores, 0:45:00
  Fluorescence intensity (normalized): 2437
Dye 0.033 mM with nutrients, E3 spores, 1:00:00
  Fluorescence intensity (normalized): 2558.5
Dye 0.033 mM with nutrients, E4 spores, 0:00:00
  Fluorescence intensity (normalized): 0
Dye 0.033 mM with nutrients, E4 spores, 0:15:00
  Fluorescence intensity (normalized): 3467
Dye 0.033 mM with nutrients, E4 spores, 0:30:00
  Fluorescence intensity (normalized): 3640.5
Dye 0.033 mM with nutrients, E4 spores, 0:45:00
  Fluorescence intensity (normalized): 3724
Dye 0.033 mM with nutrients, E4 spores, 1:00:00
  Fluorescence intensity (normalized): 3810.5
Dye 0.033 mM with nutrients, E5 spores, 0:00:00
  Fluorescence intensity (normalized): 0
Dye 0.033 mM with nutrients, E5 spores, 0:15:00
  Fluorescence intensity (normalized): 5012
Dye 0.033 mM with nutrients, E5 spores, 0:30:00
  Fluorescence intensity (normalized): 5029
Dye 0.033 mM with nutrients, E5 spores, 0:45:00
  Fluorescence intensity (normalized): 4999
Dye 0.033 mM with nutrients, E5 spores, 1:00:00
  Fluorescence intensity (normalized): 5068
Dye 0.033 mM with nutrients, E6 spores, 0:00:00
  Fluorescence intensity (normalized): 0
Dye 0.033 mM with nutrients, E6 spores, 0:15:00
  Fluorescence intensity (normalized): 14427.5
Dye 0.033 mM with nutrients, E6 spores, 0:30:00
  Fluorescence intensity (normalized): 19073.5
Dye 0.033 mM with nutrients, E6 spores, 0:45:00
  Fluorescence intensity (normalized): 20802.5
Dye 0.033 mM with nutrients, E6 spores, 1:00:00
  Fluorescence intensity (normalized): 21688
Dye 0.066 mM with nutrients, 0 spores, 0:00:00
  Fluorescence intensity (normalized): 0.0
Dye 0.066 mM with nutrients, 0 spores, 0:15:00
  Fluorescence intensity (normalized): 815.5
Dye 0.066 mM with nutrients, 0 spores, 0:30:00
  Fluorescence intensity (normalized): 1026.0
Dye 0.066 mM with nutrients, 0 spores, 0:45:00
  Fluorescence intensity (normalized): 1184.5
Dye 0.066 mM with nutrients, 0 spores, 1:00:00
  Fluorescence intensity (normalized): 1287.5
Dye 0.066 mM with nutrients, E3 spores, 0:00:00
  Fluorescence intensity (normalized): 0.0
Dye 0.066 mM with nutrients, E3 spores, 0:15:00
  Fluorescence intensity (normalized): 3420.0
Dye 0.066 mM with nutrients, E3 spores, 0:30:00
  Fluorescence intensity (normalized): 3716.0
Dye 0.066 mM with nutrients, E3 spores, 0:45:00
  Fluorescence intensity (normalized): 3902.5
Dye 0.066 mM with nutrients, E3 spores, 1:00:00
  Fluorescence intensity (normalized): 4000.5
